These results are taken from patent US6075057A, “Inhibition of carbohydrates metabolism by quinone compounds” (priority 1997, dated 2000).

Like-named read-outs stand apart in the source and are kept apart here.

For series [1], the target named is T1, β-xylosidase (EC 3.2.1.37) (Aspergillus niger, UniProt O00089).
T1 construct: purchased Sigma; host or cells: Aspergillus niger
In words: Initial screening assay for enzyme inhibition, β-xylosidase. Format: biochemical. The conditions noted are these: 20 μM inhibitor, 2% MeOH, read-out: % Enzyme activity relative to control. The protocol:
(§1) Optically pure enantiomers of avarol were synthetically prepared. A survey of potential inhibitory activity by avarol against twelve glycosidases was performed according to general procedures^15 (see experimental section). The enzymes tested and their biological sources are listed in Table 1 along with any pertinent references found for a given enzyme. In order to determine a working range for enzyme and substrate concentrations in which the rate of product formation was linear and steady-state kinetics were applicable, initial rate studies with varying substrate concentrations were performed in the absence of inhibitor. The Michaelis constants (Km 's) and Vmax values for these enzymes were determined from these plots using standard graphical analysis procedures as described in ref. 17 and are summarized in Table 2.
(§2) Enzymatic Assays. Piperazine-N,N'-bix-(2-ethanesulfonic acid)(PIPES) buffer, enzymes, and substrates were purchased from Sigma and used as received. Buffer solutions and enzymes (desiccated) were stored at 4° C. p-Nitrophenyl glycoside substrates were stored desiccated at -20° C. Enzyme inhibition assays and initial rate studies were carried out with the appropriate p-nitrophenyl glycoside substrates following the general procedure of Kajimoto et al., J. Am. Chem. Soc. 113:6187 (1991) with the exception that amyloglucosidase (EC 3.2,1.3, Asp. niger) was assayed following the method of Saul et al., Arch. Biochem. Biophys. 221:593 (1983). Assays were performed in a Perkin-Elmer Lambda Array 3840 Spectrophotometer using the built-in drive method (resolution=0.25, average=8) in a quartz cuvette (1 cm pathlength). Background absorption spectra were acquired using millipore filtered water as medium. Steady-state kinetics were maintained by adjusting the amount of enzyme used in each assay so that less than 10% of the substrate was converted to product for the duration of the reaction. Reactions were monitored at 400 nm (the absorbance of the p-nitrophenol product, ε=3204.5 M^-1 cm^-1) for a given amount of time and the initial rates were calculated and expressed as μmols p-nitrophenol formed per unit enzyme per second. Absportion readings for control reactions were corrected for the small baseline absorbance at time zero. Small discrepancies between time zero absorbance readings in a given inhibition assay and a time zero reading in a control assay were used to correct the overall absorbance change calculated in the inhibition assay. […]
(§3) Typical assay: A 1.5-mL quartz cuvette was charged with 940 μL of PIPES-NaOAc buffer solution (pH 6.56), 20 μL of inhibitor solution, and 20 μL of enzyme solution. […] The reaction was monitored at 400 nm for 1 min and the absorbance change was used to calculate the initial hydrolysis rate. […]

In series [2] the target is T2, α-L-fucosidase (EC 3.2.1.51) (Bos taurus, UniProt Q2KIM0).
T2 construct: purchased Sigma; host or cells: bovine kidney
T2 sequence (Q2KIM0 23-468): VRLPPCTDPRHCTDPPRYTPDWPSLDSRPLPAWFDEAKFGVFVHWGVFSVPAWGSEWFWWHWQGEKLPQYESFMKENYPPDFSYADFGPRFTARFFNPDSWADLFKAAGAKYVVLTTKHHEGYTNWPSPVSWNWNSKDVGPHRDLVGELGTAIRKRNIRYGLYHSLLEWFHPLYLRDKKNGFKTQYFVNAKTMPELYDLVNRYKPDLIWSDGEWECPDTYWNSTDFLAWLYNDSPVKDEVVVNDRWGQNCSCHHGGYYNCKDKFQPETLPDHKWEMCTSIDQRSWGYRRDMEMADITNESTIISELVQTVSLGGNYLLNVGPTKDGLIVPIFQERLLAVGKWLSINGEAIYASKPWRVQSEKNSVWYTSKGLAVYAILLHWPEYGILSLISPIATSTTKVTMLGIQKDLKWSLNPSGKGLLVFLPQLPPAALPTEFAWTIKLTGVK
Put plainly: Initial screening assay for enzyme inhibition, α-L-fucosidase. The series is classed as biochemical, bovine kidney. The conditions noted are these: read-out: % Enzyme activity relative to control. On the procedure: as §1, §2, §3

For series [3], the system named is β-mannosidase (EC 3.2.1.25). Put plainly: Initial screening assay for enzyme inhibition, β-mannosidase. Format: biochemical, snail. The conditions noted are these: 20 μM inhibitor, 2% MeOH. The protocol: as §1, §2, §3
Series [4] addresses T3, β-galactosidase (EC 3.2.1.23, grade XI) (Aspergillus oryzae, UniProt Q2UCU3).
T3 construct: purchased Sigma; host or cells: Aspergillus oryzae
In words: Initial screening assay for enzyme inhibition, β-galactosidase (Asp. oryzae). The series is classed as biochemical. The conditions noted are these: 20 μM inhibitor, 2% MeOH, read-out: % Enzyme activity relative to control. On the procedure: as §1, §2, §3

Series [5] concerns the target T4, β-galactosidase (EC 3.2.1.23) (Aspergillus niger, UniProt P29853).
T4 construct: purchased Sigma; host or cells: Aspergillus niger
In words: Initial screening assay for enzyme inhibition, β-galactosidase (Asp. niger). The conditions noted are these: 20 μM inhibitor, 2% MeOH, read-out: % Enzyme activity relative to control. Format: biochemical. On the procedure: as §1, §2, §3

In series [6] the test system is α-galactosidase (EC 3.2.1.22). Put plainly: Initial screening assay for enzyme inhibition, α-galactosidase (E. coli). The series is classed as biochemical, Escherichia coli. The conditions noted are these: 20 μM inhibitor, 2% MeOH. The protocol:
as §1, §2, §3

Series [7] deals with T5, α-galactosidase (EC 3.2.1.22) (Coffea arabica, UniProt Q42656).
T5 construct: purchased Sigma; host or cells: green coffee beans
In words: Initial screening assay for enzyme inhibition, α-galactosidase (green coffee beans). The series is classed as biochemical. As to conditions: read-out: % Enzyme activity relative to control. The protocol: as §1, §2, §3

Series [8] concerns amyloglucosidase (EC 3.2.1.3). In words: Initial screening assay for enzyme inhibition, amyloglucosidase. The conditions noted are these: for % Enzyme activity relative to control: amyloglucosidase, 20 μM inhibitor, 2% MeOH. Format: biochemical, Aspergillus niger. On the procedure: as §1
(§4) Enzymatic Assays. Piperazine-N,N'-bix-(2-ethanesulfonic acid)(PIPES) buffer, enzymes, and substrates were purchased from Sigma and used as received. Buffer solutions and enzymes (desiccated) were stored at 4° C. p-Nitrophenyl glycoside substrates were stored desiccated at -20° C. Enzyme inhibition assays and initial rate studies were carried out with the appropriate p-nitrophenyl glycoside substrates following the general procedure of Kajimoto et al., J. Am. Chem. Soc. 113:6187 (1991) with the exception that amyloglucosidase (EC 3.2,1.3, Asp. niger) was assayed following the method of Saul et al., Arch. Biochem. Biophys. 221:593 (1983). Assays were performed in a Perkin-Elmer Lambda Array 3840 Spectrophotometer using the built-in drive method (resolution=0.25, average=8) in a quartz cuvette (1 cm pathlength). Background absorption spectra were acquired using millipore filtered water as medium. Steady-state kinetics were maintained by adjusting the amount of enzyme used in each assay so that less than 10% of the substrate was converted to product for the duration of the reaction. Reactions were monitored at 400 nm (the absorbance of the p-nitrophenol product, ε=3204.5 M^-1 cm^-1) for a given amount of time and the initial rates were calculated and expressed as μmols p-nitrophenol formed per unit enzyme per second. Absportion readings for control reactions were corrected for the small baseline absorbance at time zero. Small discrepancies between time zero absorbance readings in a given inhibition assay and a time zero reading in a control assay were used to correct the overall absorbance change calculated in the inhibition assay. Inhibitors were dissolved in uv-grade absolute methanol.
(§5) Typical assay: A 1.5-mL quartz cuvette was charged with 940 μL of PIPES-NaOAc buffer solution (pH 6.56), 20 μL of inhibitor solution, and 20 μL of enzyme solution. The result was mixed well and then equilibrated at 37° C. for two minutes. 20 μL of the appropriate p-nitrophenyl glycoside solution was then added to initiate the reaction with rapid mixing. The reaction was monitored at 400 nm for 1 min and the absorbance change was used to calculate the initial hydrolysis rate. Lineweaver-Burk plots were constructed by repeating this procedure with varying substrate and inhibitor concentrations.

Series [9] has as its system β-N-acetylglucosaminidase (EC 3.2.1.30). In words: Initial screening assay for enzyme inhibition, β-N-acetylglucosaminidase. Format: biochemical, bovine kidney. As to conditions: 20 μM inhibitor, 2% MeOH. On the procedure:
as §1, §2, §3

For series [10] the following is noted: documented; cited from earlier work.
Series [11] deals with L5178Y mouse lymphoma cells. The conditions noted are these: in vitro and in vivo; cited from earlier work.
Series [12] relates to benzo[a]pyrene monooxygenase. As to conditions: cited from earlier work.
In series [13] the test system is microtubule polymerization. As to conditions: in vitro and in vivo; cited from earlier work.
The test system of series [14] is Ames-microsomal assay. As to conditions: cited from earlier work.
Series [15] relates to HTLV-III/LAV. The conditions noted are these: in vitro; cited from earlier work.
Series [16] concerns the target T6, α-glucosidase (EC 3.2.1.20, type IV) (Saccharomyces cerevisiae, UniProt P53341).
T6 construct: purchased Sigma; host or cells: brewer's yeast
Put plainly: Initial screening assay for enzyme inhibition, α-glucosidase. The series is classed as biochemical, brewer's yeast. The protocol:
as §1
Initial screening assays with the enantiomeric avarols indicated significant activity by these compounds against only two of the twelve enzymes studies. […] This can occur when the two species compete for the same site or nearby sites on the enzyme. The equilibria that describe competitive inhibition are shown below. [drawing 3]
as §4, §5

T3 sequence (Q2UCU3 19-1005): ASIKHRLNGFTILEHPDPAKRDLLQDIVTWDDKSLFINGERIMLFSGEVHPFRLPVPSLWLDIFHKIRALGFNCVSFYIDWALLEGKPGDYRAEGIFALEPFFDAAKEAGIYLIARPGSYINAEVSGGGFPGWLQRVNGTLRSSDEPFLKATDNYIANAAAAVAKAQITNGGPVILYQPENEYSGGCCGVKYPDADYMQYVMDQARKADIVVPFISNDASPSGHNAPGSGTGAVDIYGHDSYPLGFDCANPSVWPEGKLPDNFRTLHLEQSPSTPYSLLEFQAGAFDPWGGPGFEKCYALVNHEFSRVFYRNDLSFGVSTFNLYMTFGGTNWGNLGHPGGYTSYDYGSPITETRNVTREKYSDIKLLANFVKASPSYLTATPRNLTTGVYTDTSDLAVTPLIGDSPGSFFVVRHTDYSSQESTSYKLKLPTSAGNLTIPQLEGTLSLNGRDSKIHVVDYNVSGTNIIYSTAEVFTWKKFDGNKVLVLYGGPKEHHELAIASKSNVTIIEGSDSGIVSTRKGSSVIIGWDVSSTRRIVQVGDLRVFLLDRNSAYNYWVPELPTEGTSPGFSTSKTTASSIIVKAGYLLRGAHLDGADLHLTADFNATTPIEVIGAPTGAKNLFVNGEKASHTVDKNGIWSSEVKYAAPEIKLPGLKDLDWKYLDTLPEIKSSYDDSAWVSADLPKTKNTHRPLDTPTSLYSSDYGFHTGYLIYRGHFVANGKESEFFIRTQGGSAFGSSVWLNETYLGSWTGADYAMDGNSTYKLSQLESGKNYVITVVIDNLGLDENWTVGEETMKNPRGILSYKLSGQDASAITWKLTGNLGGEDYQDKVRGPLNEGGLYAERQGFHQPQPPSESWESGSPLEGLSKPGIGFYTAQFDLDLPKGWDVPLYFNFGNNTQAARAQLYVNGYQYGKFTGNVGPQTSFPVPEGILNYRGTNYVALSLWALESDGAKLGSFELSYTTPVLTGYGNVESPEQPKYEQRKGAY
T5 sequence (Q42656 16-378): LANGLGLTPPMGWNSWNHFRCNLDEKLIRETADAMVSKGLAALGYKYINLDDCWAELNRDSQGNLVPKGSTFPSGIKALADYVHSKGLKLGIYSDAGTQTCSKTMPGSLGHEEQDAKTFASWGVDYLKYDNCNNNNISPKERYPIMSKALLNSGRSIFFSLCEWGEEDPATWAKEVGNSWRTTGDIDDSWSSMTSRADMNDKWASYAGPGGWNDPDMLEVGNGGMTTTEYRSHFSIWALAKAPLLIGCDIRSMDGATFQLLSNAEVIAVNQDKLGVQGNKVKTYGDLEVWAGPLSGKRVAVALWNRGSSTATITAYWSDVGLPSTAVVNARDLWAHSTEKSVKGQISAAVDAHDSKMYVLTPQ
T6 sequence (P53341 whole entry): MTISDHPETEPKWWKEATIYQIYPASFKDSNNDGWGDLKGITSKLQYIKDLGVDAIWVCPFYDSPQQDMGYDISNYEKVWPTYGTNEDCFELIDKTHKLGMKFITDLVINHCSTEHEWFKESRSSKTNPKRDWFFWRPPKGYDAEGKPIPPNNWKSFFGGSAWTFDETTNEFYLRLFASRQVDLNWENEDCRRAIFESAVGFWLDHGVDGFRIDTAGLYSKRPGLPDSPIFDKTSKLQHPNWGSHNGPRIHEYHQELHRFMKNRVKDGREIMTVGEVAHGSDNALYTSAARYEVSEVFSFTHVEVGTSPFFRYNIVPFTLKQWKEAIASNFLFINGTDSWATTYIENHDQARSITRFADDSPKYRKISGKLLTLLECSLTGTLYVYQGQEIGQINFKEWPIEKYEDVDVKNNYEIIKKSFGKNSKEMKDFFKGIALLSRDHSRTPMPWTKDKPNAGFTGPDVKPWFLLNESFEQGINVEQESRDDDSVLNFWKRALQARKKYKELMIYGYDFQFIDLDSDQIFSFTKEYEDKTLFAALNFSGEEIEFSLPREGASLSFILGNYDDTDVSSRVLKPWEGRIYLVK
T1 sequence (O00089 27-804): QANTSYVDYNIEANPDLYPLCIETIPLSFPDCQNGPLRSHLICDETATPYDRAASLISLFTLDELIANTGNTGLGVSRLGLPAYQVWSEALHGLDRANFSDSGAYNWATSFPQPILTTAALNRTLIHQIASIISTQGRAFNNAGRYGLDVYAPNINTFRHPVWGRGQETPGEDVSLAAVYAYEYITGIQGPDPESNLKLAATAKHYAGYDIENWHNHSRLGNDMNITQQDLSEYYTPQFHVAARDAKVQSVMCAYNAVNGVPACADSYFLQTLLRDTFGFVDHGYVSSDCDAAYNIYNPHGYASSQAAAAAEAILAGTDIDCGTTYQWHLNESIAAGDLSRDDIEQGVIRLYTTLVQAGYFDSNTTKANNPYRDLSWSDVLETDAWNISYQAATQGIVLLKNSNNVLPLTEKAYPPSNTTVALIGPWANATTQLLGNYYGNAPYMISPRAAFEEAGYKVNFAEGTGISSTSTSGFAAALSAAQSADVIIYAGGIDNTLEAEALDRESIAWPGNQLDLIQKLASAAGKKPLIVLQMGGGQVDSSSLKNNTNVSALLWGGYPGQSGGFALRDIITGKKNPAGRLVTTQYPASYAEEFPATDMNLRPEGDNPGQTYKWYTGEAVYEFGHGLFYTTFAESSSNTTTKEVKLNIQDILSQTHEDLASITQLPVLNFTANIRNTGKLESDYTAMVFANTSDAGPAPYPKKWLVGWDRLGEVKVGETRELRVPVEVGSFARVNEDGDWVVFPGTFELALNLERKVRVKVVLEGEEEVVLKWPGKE
T4 sequence (P29853 20-1006): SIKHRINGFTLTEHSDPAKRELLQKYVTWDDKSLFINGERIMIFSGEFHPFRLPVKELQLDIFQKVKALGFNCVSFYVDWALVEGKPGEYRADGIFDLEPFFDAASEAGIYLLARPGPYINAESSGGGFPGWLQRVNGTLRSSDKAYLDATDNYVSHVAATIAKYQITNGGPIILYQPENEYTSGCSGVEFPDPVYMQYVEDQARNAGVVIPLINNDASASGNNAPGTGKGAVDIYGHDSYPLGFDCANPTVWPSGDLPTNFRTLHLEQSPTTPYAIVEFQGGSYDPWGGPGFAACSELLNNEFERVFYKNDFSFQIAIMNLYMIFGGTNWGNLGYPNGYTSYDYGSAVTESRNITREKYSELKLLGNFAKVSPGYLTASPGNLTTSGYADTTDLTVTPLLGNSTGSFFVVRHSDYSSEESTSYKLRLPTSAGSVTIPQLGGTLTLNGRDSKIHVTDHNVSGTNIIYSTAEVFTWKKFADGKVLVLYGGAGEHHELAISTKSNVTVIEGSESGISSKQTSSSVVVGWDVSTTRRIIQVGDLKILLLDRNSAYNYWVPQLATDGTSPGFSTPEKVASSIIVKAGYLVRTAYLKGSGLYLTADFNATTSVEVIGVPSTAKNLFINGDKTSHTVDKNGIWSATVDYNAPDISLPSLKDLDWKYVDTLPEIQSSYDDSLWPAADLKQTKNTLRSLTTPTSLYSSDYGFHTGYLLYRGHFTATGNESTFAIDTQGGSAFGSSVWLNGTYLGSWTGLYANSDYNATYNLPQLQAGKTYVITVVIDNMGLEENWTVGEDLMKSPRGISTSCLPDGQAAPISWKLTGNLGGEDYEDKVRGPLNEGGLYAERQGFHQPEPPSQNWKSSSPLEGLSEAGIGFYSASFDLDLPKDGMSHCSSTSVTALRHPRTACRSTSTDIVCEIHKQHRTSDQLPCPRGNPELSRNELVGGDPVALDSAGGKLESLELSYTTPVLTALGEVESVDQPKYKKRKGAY

Regarding `CC1=CCC[C@H]2[C@](C)(CC/C(C)=C/C[n+]3cn(C)c4ncnc(N)c43)[C@@H](C)CC[C@]12C` [C-4-10], the remaining activity at 20 µM in [1] turned out to be 102%; in series [2], 100%; in series [4], 108%; in series [5], 95%; in series [7], 96%. Besides, the “% Enzyme activity relative to control” value in [3] stood at 109%; in [6], 102%; in [8], 94%; in [9] it was 91%.

For `CC1=CCC[C@H]2[C@](C)(Cc3cc(O)ccc3O)[C@@H](C)CC[C@]12C` [avarol], the toxicity result in series [10] is “low toxicity”. In addition, the “cytotoxicity against L5178Y mouse lymphoma cells” value in [11] is recorded as “highly selective cytotoxicity”. The “antimutagenic activity through inhibition of benzo[a]pyrene monooxygenase” value in series [12] is “antimutagenic activity through the inhibition of benzo[a]pyrene monooxygenase”. For the same compound, in series [13], the “inhibition of microtubule polymerization” value is listed as “inhibition of microtubule polymerization”. Also, the mutagenicity entry in series [14] was “neither direct nor indirect mutagens”. In addition, the “inhibition of replication of HTLV-III/LAV” value in [15] is on record as “inhibition of replication”.

Turning to `CC1=CCC[C@H]2[C@](C)(CC3=CC(=O)C=CC3=O)[C@@H](C)CC[C@]12C` [avarone, Avarone], the toxicity entry in [10] is “low toxicity”. Moreover, the “antimutagenic activity through inhibition of benzo[a]pyrene monooxygenase” value in series [12] is “antimutagenic activity through the inhibition of benzo[a]pyrene monooxygenase”. Moreover, the mutagenicity entry in series [14] is recorded as “neither direct nor indirect mutagens”.

For the compound `C=C1CCC[C@H]2[C@](C)(CC3=C(O)C(=O)C=C(OC)C3=O)[C@@H](C)CC[C@]12C` [ilimaquinone, reference compound], the remaining activity at 20 µM was 105% in series [1]; 82% in series [16] (α-glucosidase, 20 μM inhibitor, 2% MeOH, read-out: % Enzyme activity relative to control); 109% in [2] (α-L-fucosidase, 20 μM inhibitor, 2% MeOH); 98% in [4]; 111% in series [5]; 97% in series [7] (α-galactosidase (green coffee beans), 20 μM inhibitor, 2% MeOH). In addition, the inhibition at 20 µM in series [16] (20 μM) turned out to be 20%. For the same compound, the “% Enzyme activity relative to control” value was 108% in series [3], 101% in series [6], 57% in series [8] and 96% in series [9]. The “inhibition of amyloglucosidase (in words)” value in [8] (Table 3) was “strong inhibitor of amyloglucosidase”.

In general, inhibition refers to the share of the control response that was lost under treatment.
